“Also recorded” adds a separate entry of the source. Like-named read-outs stand apart in the source and are kept apart here.
Experiments:
SARS-CoV-2 [1] = assay: microbe, parasite or virus in culture; format: cell-based
hCoV-OC43 [2] = assay: hCoV-OC43 replication and spread in MRCS cells, N protein immunofluorescence, high-content imaging; format: cell-based
Protocol: FIG. 2. Inhibiting METTL3 in lung fibroblasts suppresses hCOV-OC43 replication. (A) MRCS cells infected with hCOV-OC43 [MOI=0.001] were treated with vehicle (DMSO), control compound (M3c), active METTL3 inhibitor (M3i) or (+) control antiviral remdesivir (rem). Viral spread through the culture was determined by immunofluorescence using an antibody to the hCoV-OC43 nucleocapsid protein (green stain). (B) Quantitation of N protein positive cells from (A) (n=3; **P<0.005; *P<0.05 by t-test for M3c vs M3i). Suppression of viral replication by M3i is evident from >0.5 mM and higher. (C) Test compounds (3 mM) have no significant impact on MRCS viability (n=3) after 48 h of treatment.
To evaluate how METTL3 enzymatic activity impacted coronavirus reproduction, we compared the activity of a specific METTL3 chemical inhibitor (Tzelepis et al., 2019), here termed M3i, to a structurally related control compound M3c unable to inhibit METTL3. […] To measure coronavirus replication, we developed an assay (FIG. 2A) that uses indirect immunofluorescence to detect coronavirus nucleocapsid protein (N) to monitor and quantify virus reproduction and spread using a high-content imaging platform (Cellinsight CX7 LZR). […] In FIG. 2C, the bars from left to right indicate DMSO, M3c, M3i, and remdesivir. […] In FIG. 3A, the bars from left to right represent DMSO, M3c and M3i. In FIG. 3B, the bars represent Not Treated, M3c and M3i. […] It is believed this requirement will extend to other RNA viruses, including coronaviruses with pandemic potential. The data further provide proof in principle that the cellular m^6A modification machinery represents an unexpected host target for anti-coronavirus drug targeting.

SARS-CoV-2 [3] = assay: SARS-CoV-2 infectious virus titers from A549+ACE2 cells by plaque assay; format: cell-based; conditions: MOI=0.1, 30 μM
Protocol: FIG. 11. Inhibition of METTL3 activity suppresses β-coronavirus replication in A549+ACE2 cells. […] The percentage of cells infected was established by green fluorescence and normalized to infection of nontreated cells. (B) The viability of A549+ACE2 cells in the presence of concentrations of each compound used in the infection assays shown in A was assessed using a commercial ATP quantitation assay. Cells were maintained at 37° C. in culture medium containing diluted compound for 48 h prior to lysis. Each experiment was conducted three times with internal duplicates, normalized to DMSO-treated cells processed in parallel and plotted as the mean±SEM. (C) Representative montages showing wells from the infections quantified in A that were treated with 30 μM M3c or M3i2 and infected with icSARS-CoV-2-mNG. (D) Infectious virus titers from A549+ACE2 cells infected with icSARS-CoV-2-mNG at MOI=0.1 and treated with 30 μM either M3c or M3i2 was determined by plaque assay.
This concordance further validates the high-content imaging assay as a measure of viral replication and release. Thus, a selective small molecule METTL3 inhibitor effectively suppresses the productive replication of human β-coronavirus, pandemic SARS-CoV-2 in a further human lung cell line.

hCoV-OC43 [4] = assay: hCoV-OC43 infectious virus production from MRCS cells by TCID50; format: cell-based; conditions: for hCoV-OC43 infectious virus production: TCID50 after 48h, compared to equivalent concentrations of M3c or DMSO; for efficacy compared with remdesivir: hCoV-OC43 infectious virus production
Protocol: FIG. 8. Inhibiting METTL3 in lung fibroblasts limits hCOV-OC43 infectious virus production. MRCS cells infected with hCOV-OC43 [MOI=0.001] were treated with vehicle (DMSO), control compound (M3c) or active METTL3 inhibitor (M3i2 in A or M3i in B) at the indicated concentration. After 48h, the amount of infectious virus released was quantified by TCID50. N=3. **P<0.01; *P<0.05 by student's t-test.
In FIGS. 7B and 7C, each set of bars from left to right signifies DMSO, M3c and M3i2. […] To determine how METTL3 chemical inhibitors influenced virus production, we quantified and compared infectious virus produced by infected cell cultures treated with vehicle, a control compound (M3c), the two different METTL3 chemical inhibitors (M3i, M3i2) and remdesivir.

A549+ACE2 cells = conditions: 48 h, FIG. 11B
MRCS cells = assay: MRCS cell viability (ATP, Celltiterglo2.0); format: cell-based, human
Protocol: To determine viability, cells were seeded to opaque white 96-well plates. The next day, cells were drug- or vehicle-treated and incubated as in infection experiments (for example, treated-MRC-5 cells were placed for 48 h at 33° C.). ATP levels were then assayed using Celltiterglo2.0 (Promega G9242) according to the manufacturer's instructions. Luciferase signal was read on a Perkin Elmer Envision 2103 multilabel reader, and 24-h 1 μM staurosporine treatment used as a positive control for assay sensitivity.

METTL3 = METTL3 (Homo sapiens, UniProt Q86U44); conditions: Tzelepis et al., 2019; cited from earlier work
SARS-CoV-2 [5] = format: cell-based; conditions: FIG. 3A
viral dsRNA = assay: Viral dsRNA accumulation, immunofluorescence with J2 dsRNA-specific antibody; format: cell-based
[6] = test system: coronavirus nucleocapsid protein (N); format: cell-based; conditions: infected MRCS cells, 24 h treatment / 24 hpi
viral RNA = assay: Viral RNA accumulation by RT-qPCR; format: cell-based; conditions: RT-qPCR (not shown)

Sequence of METTL3 (Q9HCE5 whole entry): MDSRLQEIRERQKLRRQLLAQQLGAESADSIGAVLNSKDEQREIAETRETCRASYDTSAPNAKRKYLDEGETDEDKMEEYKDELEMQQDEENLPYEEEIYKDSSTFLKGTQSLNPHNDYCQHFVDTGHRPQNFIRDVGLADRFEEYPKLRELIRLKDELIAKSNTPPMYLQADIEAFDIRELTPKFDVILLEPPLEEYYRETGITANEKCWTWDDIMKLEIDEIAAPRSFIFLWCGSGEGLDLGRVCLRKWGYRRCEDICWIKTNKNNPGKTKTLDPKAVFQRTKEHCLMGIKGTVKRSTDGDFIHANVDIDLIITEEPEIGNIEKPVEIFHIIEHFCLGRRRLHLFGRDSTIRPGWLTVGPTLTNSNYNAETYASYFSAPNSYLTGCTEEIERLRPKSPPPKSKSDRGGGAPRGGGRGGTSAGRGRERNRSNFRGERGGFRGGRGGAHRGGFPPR
Sequence of METTL3 (Q86U44 whole entry): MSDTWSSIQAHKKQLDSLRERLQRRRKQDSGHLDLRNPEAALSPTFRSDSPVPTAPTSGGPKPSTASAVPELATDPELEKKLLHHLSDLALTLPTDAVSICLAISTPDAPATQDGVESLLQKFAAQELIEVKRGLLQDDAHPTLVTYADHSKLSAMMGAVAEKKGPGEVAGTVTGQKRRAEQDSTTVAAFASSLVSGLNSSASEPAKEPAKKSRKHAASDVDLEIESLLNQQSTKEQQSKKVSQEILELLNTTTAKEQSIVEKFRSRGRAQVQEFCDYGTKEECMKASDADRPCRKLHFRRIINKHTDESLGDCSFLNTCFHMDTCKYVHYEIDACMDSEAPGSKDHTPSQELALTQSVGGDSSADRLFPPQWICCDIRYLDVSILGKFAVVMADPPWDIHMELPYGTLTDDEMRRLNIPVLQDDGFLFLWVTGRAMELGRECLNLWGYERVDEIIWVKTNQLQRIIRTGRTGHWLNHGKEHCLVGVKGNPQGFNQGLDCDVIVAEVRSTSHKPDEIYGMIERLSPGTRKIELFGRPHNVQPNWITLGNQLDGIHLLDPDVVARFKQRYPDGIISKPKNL

Molecule: GUAACGGAGACCAUCAUUU[dT][dT] [YTHDF1 siRNA #1]
- reduction of the percentage of infected (mNeonGreen-positive) cells (SARS-CoV-2 [1]): 68%

Molecule: O=C(NCc1cn2cc(CNCC3CCCCC3)ccc2n1)c1cc(=O)n2ccccc2n1 [M3i2]
- hCoV-OC43 reproduction and spread through MRCS cells (hCoV-OC43 [2]; 10 μM, compared to control compound M3c): inhibited
- reduction of SARS-CoV-2 infectious virus production (SARS-CoV-2 [3]): 300 fold
- hCoV-OC43 infectious virus production (hCoV-OC43 [4]): reduced
- efficacy compared with remdesivir (hCoV-OC43 [4]; FIG. 8): neither were as efficacious as remdesivir
- IC50 (SARS-CoV-2 [1]; Severe acute respiratory syndrome coronavirus 2, A549+ACE2 cells, read-out: IC50 against SARS-CoV-2): 16.8 µM
- icSARS-CoV-2-mNG-infected A549+ACE2 cells (SARS-CoV-2 [1]; higher concentrations, compared with DMSO or M3c): clearly reduced
- viability of A549+ACE2 cells (A549+ACE2 cells): Minor differences
- effects on cell viability (MRCS cells; 10 μM, MRCS cells (FIG. 7C)): without any discernible effects

Molecule: CC1(C)CCN(Cc2ccc3nc(Cn4cc(-c5cc(Br)cc6[nH]ncc56)nn4)cn3c2)CC1 [M3i]
- selectivity for METTL3 (METTL3): highly selective
- concentration at which hCoV-OC43 replication and spread is strongly suppressed (hCoV-OC43 [2]; MRCS cells): ≥ 0.5 µM
- hCoV-OC43 reproduction and spread in MRCS cells (hCoV-OC43 [2]; compared to the inactive compound M3c, FIG. 9): reduced
- SARS-CoV-2 replication in Calu-3 cells (SARS-CoV-2 [5]): significantly reduced
- viral dsRNA accumulation (viral dsRNA): blocks; also recorded: significant reduction
- impact on viability of Calu-3 cell (Calu-3 cells; concentrations of 3 mM or lower): minimal impact
- effects on Calu-3 cell viability (Calu-3 cells; over the dosage range tested (FIG. 3B)): negligible detectable effects
- reduction of hCoV-OC43 replication compared with M3i2 (hCoV-OC43 [4]; FIG. 8): to a greater extent than M3i2
- hCoV-OC43 infectious virus production (hCoV-OC43 [4]): reduced
- efficacy compared with remdesivir (hCoV-OC43 [4]; FIG. 8): neither were as efficacious as remdesivir
- N accumulation / N expression [6]: reduced
- cell viability of siRNA-treated cultures (MRCS cells; MRCS cells, siRNA-treated, FIG. 9C): did not detectably change
- effects on MRCS cell viability (MRCS cells; over the dosage range tested (FIG. 2C)): negligible detectable effects
- accumulation of viral RNA (viral RNA): significant reduction

Molecule: CUGCAAGUAUGUUCACUAUGA[dT][dT [METTL3-1]
- hCoV-OC43 replication and spread (N protein positive cells) after METTL3 depletion (hCoV-OC43 [2]; cultures treated with M3c): not
- hCoV-OC43 replication and spread (N protein positive cells) after METTL3 depletion (hCoV-OC43 [2]; cultures treated with M3i): increased

Molecule: AGGAGCCAGCCAAGAAAUCAA[dT][dT] [METTL3-2]
- hCoV-OC43 replication and spread (N protein positive cells) after METTL3 depletion (hCoV-OC43 [2]; cultures treated with M3c): not
- hCoV-OC43 replication and spread (N protein positive cells) after METTL3 depletion (hCoV-OC43 [2]; cultures treated with M3i): increased

Molecule: GAAACGCGGCGUUUGGGCA[dT][dT] [YTHDF1 siRNA #3]
- reduction of the percentage of infected (mNeonGreen-positive) cells (SARS-CoV-2 [1]): 79%

Molecule: CACCUACGGACAGCUCAGU[dT][dT] [siRNA #4]
- reduction of the percentage of infected (mNeonGreen-positive) cells (SARS-CoV-2 [1]): 89%

Molecule: GUCAAUGGGAGUGGGCAUU[dT][dT] [YTHDF1 siRNA #2]
- reduction of the percentage of infected (mNeonGreen-positive) cells (SARS-CoV-2 [1]; siRNA 72 h before infection, MOI=0.1, 48 h, compared with control nonsilencing siRNA): 23%

Source: patent US11944608B2, “Targeting RNA viruses using inhibitors of METTL3” (priority 2020, dated 2024)
